Measured values as given in patent publication US12640239B2, “Functional biomarkers for statin therapy in age-related macular degeneration (AMD)” (APELIOTUS TECHNOLOGIES, INC., priority 2017, dated 2026).

Test system: AMD patients
Test: Dark adaptation testing, rod intercept (RI) time, AdaptDx Dark Adaptometer Extended Test protocol
Type: in vivo, human
Conditions: for Improvement in RI time: Patient 2, atorvastatin 80 mg/day, July 2018 vs January 2015
Source text: Dark adaptation is preferably measured using devices known in the art, for example as described in U.S. Pat. No. 7,494,222. […] Briefly, the methods of the prior art as described therein, while sitting in complete or near-complete darkness the subject is first exposed to a bright photobleaching light to photobleach one or more of the visual pigments. This is followed by exposure to a series of dim stimulus lights to track visual sensitivity recovery from the photobleach. The intensity of the stimulus lights is gradually […] (generally in a staircase fashion), and the subject indicates whether each stimulus light presentation is detectable (e.g., by pushing a response button) or not detectable (e.g., by failing to push the response button). The just-detectible stimulus light intensity and the time at which it is detected are periodically recorded to generate a dark adaptation threshold curve. Finally, the speed of dark adaption is characterized by a parameter extracted from the threshold curve such as the rod intercept time or the rod-cone break time.
Table 2 provides detailed information regarding patients 1 to 7, including the baseline diagnosis (diagnosis made when starting statin therapy), ending diagnosis (the diagnosis made on the date of the last referenced evaluation), the results of evaluations performed on each patient, and whether the patient responded to statin therapy. The dark adaptation data in this Example is the rod intercept time (or RI time) reported in minutes. In this Example, the dark adaptation data was collected using the AdaptDx® Dark Adaptometer (MacuLogix, Middletown, PA) running its standard Extended Test protocol. […] Data is automatically analyzed by the AdaptDx Dark Adaptometer to provide an RI time based on recovery to a criterion sensitivity level of 5×10^−3 scotopic cd/m^2. […] The visual acuity data was collected using a standard Snellen or ETDRS eye chart with the results presented using the standard 20/20 vision scale. Drusen resolution was determined by evaluation of fundus and OCT imaging by qualified clinicians experienced in AMD evaluation. Fundus and OCT imaging data was collected using the Heidelberg Engineering Spectralis® SD-OCT (Heidelberg, Germany) or the Karl Zeiss Meditec Cirrus® HD-OCT (Jena, Germany), in both cases running standard protocols with automated data analysis performed by the instruments.

SMILES: CC(C)c1c(C(=O)Nc2ccccc2)c(-c2ccccc2)c(-c2ccc(F)cc2)n1CC[C@@H](O)C[C@@H](O)CC(=O)O [atorvastatin]
- Improvement in RI time (OD): 1.67 min
- Improvement in RI time (OS): 2.60 min
- Change in RI time (Patient 5, atorvastatin 80 then 20 mg/day, pravastatin 20 mg/day from April 2018, left eye, June 2018 vs October 2015): essentially unchanged
- Increase in RI time (Patient 5, atorvastatin 80 then 20 mg/day, pravastatin 20 mg/day from April 2018, right eye, June 2018 vs October 2015): 7.51 min
- RI (rod intercept time) (Patient #1, atorvastatin 20 to 80 mg/day, OD, month 24 (July 2015)): RI > 20 minutes
- RI (rod intercept time) (Patient #1, atorvastatin 20 to 80 mg/day, OD, month 60 (July 2018)): RI > 20 minutes
- RI (rod intercept time) (Patient #1, atorvastatin 20 to 80 mg/day, OS, month 24 (July 2015)): RI = 17.13 minutes
- RI (rod intercept time) (Patient #1, atorvastatin 20 to 80 mg/day, OS, month 60 (July 2018)): RI > 20 minutes
- RI (rod intercept time) (Patient #2, atorvastatin 80 mg/day, OD, month 24 (January 2015)): RI = 18.72 minutes
- RI (rod intercept time) (Patient #2, atorvastatin 80 mg/day, OD, month 66 (July 2018)): RI = 17.05 minutes
- RI (rod intercept time) (Patient #2, atorvastatin 80 mg/day, OS, month 24 (January 2015)): RI = 9.88 minutes
- RI (rod intercept time) (Patient #2, atorvastatin 80 mg/day, OS, month 66 (July 2018)): RI = 7.28 minutes
- RI (rod intercept time) (Patient #3, atorvastatin 80 mg/day, OD, month 8 (June 2017)): RI > 20 minutes
- RI (rod intercept time) (Patient #3, atorvastatin 80 mg/day, OD, month 20 (June 2018)): RI > 20 minutes
- RI (rod intercept time) (Patient #3, atorvastatin 80 mg/day, OS, month 8 (June 2017)): RI > 20 minutes
- RI (rod intercept time) (Patient #3, atorvastatin 80 mg/day, OS, month 20 (June 2018)): RI > 20 minutes
- RI (rod intercept time) (Patient #4, atorvastatin 80 mg/day, OD, month 0 (May 2018), baseline): RI > 20 minutes
- RI (rod intercept time) (Patient #4, atorvastatin 80 mg/day, OD, month 4 (September 2018)): RI > 20 minutes
- RI (rod intercept time) (Patient #4, atorvastatin 80 mg/day, OS, month 0 (May 2018), baseline): RI > 20 minutes
- RI (rod intercept time) (Patient #4, atorvastatin 80 mg/day, OS, month 4 (September 2018)): RI > 20 minutes
- RI (rod intercept time) (Patient #5, atorvastatin 80 mg/day (suspended January 2015-February 2016), then 20 mg/day, pravastatin 20 mg/day from April 2018, OD, month 52 (June 2018)): RI = 17.19 minutes
- RI (rod intercept time) (Patient #5, atorvastatin 80 mg/day (suspended January 2015-February 2016), then 20 mg/day, pravastatin 20 mg/day from April 2018, OS, month 52 (June 2018)): RI = 10.81 minutes
- RI (rod intercept time) (Patient #5, atorvastatin 80 mg/day January 2014 to January 2015, therapy suspended until February 2016, OD, month 21 (October 2015)): RI = 9.68 minutes
- RI (rod intercept time) (Patient #5, atorvastatin 80 mg/day January 2014 to January 2015, therapy suspended until February 2016, OS, month 21 (October 2015)): RI = 11.04 minutes
- RI (rod intercept time) (Patient #6, atorvastatin 80 mg/day from November 2017, OD, month −3 (August 2017), before initiation): RI = 5.75 minutes
- RI (rod intercept time) (Patient #6, atorvastatin 80 mg/day, OD, month 9 (August 2018)): RI = 2.55 minutes
- RI (rod intercept time) (Patient #7, atorvastatin 10 to 20 mg/day, OD, month 0 (April 2016), baseline): RI > 20 minutes
- RI (rod intercept time) (Patient #7, atorvastatin 10 to 20 mg/day, OD, month 27 (July 2018)): RI > 20 minutes
- RI (rod intercept time) (Patient #7, atorvastatin 10 to 20 mg/day, OS, month 0 (April 2016), baseline): RI > 20 minutes
- RI (rod intercept time) (Patient #7, atorvastatin 10 to 20 mg/day, OS, month 27 (July 2018)): RI > 20 minutes
